In the Kinase Knowledgebase extract (Sharma et al. 2016):
Converted amounts (≈) assume the structure as drawn.

target: EGFR (UniProt P00533)
Sequence (P00533 whole entry, looked up): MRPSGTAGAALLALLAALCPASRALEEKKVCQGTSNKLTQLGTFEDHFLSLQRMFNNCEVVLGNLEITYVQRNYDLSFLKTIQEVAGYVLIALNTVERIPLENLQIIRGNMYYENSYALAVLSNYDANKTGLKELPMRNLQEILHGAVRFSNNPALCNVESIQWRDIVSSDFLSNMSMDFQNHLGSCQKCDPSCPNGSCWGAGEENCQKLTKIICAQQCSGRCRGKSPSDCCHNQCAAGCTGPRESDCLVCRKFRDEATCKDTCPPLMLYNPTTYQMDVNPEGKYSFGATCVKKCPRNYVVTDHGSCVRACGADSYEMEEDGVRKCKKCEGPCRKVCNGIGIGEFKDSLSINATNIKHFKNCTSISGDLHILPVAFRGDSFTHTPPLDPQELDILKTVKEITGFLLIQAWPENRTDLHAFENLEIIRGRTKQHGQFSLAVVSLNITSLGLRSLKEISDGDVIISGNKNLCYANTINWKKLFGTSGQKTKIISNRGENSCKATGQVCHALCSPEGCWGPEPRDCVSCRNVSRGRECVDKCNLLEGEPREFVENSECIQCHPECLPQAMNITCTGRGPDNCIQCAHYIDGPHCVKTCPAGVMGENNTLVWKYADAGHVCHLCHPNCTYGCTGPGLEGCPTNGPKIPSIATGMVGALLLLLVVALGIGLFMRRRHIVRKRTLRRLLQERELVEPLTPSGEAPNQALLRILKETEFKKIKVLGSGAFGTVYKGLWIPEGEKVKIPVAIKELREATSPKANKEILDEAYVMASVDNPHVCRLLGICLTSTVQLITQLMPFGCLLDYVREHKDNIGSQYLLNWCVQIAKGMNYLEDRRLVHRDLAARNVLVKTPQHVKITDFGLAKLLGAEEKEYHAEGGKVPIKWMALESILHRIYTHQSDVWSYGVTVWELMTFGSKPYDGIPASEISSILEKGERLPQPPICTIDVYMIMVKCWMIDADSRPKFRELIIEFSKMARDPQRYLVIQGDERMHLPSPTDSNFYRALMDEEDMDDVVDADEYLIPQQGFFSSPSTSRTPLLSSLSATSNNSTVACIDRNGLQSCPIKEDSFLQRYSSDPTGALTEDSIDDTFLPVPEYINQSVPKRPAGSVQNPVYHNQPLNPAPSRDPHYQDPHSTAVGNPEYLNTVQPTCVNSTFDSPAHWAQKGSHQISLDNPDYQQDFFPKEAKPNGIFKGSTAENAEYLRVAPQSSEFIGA

IC50 | Structure (SMILES)
< 0.4 µg/mL | CN(c1cccc(Cl)c1)c1ncnc(Nc2ccncc2)n1
0.4 to 2.4 µg/mL (≈ 0.874 to 5.25 µM) | CCOc1ccc(Nc2ncnc(Nc3ccc(OCc4ccccc4)cc3)n2)cc1OCC
0.4 to 2.4 µg/mL (≈ 0.918 to 5.51 µM) | c1ccc(CNc2ncccc2-c2ncnc(Nc3cccc(Cn4ccnn4)c3)n2)cc1
> 4.5 µg/mL | COc1cc(Nc2ncnc(-c3ccc(NCCCN)nc3)n2)cc(OC)c1OC
> 4.5 µg/mL | COc1cc(Nc2ncnc(-n3c(NCc4ccccn4)nc4ccccc43)n2)cc(OC)c1OCCn1ccnn1
< 0.4 µg/mL | Fc1ccc(Nc2ncnc(Nc3ccc4[nH]ncc4c3)n2)cc1Cl
0.4 to 2.4 µg/mL (≈ 1.29 to 7.73 µM) | c1coc(-c2cc(Nc3ncnc(Nc4nc[nH]n4)n3)n[nH]2)c1
> 4.5 µg/mL | COc1cc(Nc2ncnc(-n3c(NCc4ccc(C(F)(F)F)cc4)nc4ccccc43)n2)cc(OC)c1OC
< 0.4 µg/mL | CN(c1cccc(Cl)c1)c1ncnc(Nc2ccc(OCCO)cc2)n1
< 0.4 µg/mL | Cc1cccc(Nc2ncnc(N(C)c3cccc(Br)c3)n2)c1
0.4 to 2.4 µg/mL (≈ 0.884 to 5.3 µM) | Fc1ccc(CNc2ncccc2-c2ncnc(Nc3cccc(Cn4ccnc4)c3)n2)cc1
> 4.5 µg/mL | CCOC(=O)CNc1ncnc(N2CCCc3cc(C)ccc32)n1
3.5 to 4.5 µg/mL (≈ 9.01 to 11.6 µM) | Nc1nc2ccccc2n1-c1ncnc(Nc2ccc(N3CCOCC3)cc2)n1
< 0.4 µg/mL | COc1cc(Nc2ncnc(Nc3cc(F)cc(C(F)(F)F)c3)n2)cc(OC)c1OC
< 0.4 µg/mL | CC(=O)N1CCc2cc(Nc3ncnc(N4CCCc5cc(C)ccc54)n3)ccc21
> 4.5 µg/mL | COc1cc(Nc2ncnc(-c3ccc(F)cc3)n2)cc(OC)c1OC
< 0.4 µg/mL | Cc1ccc2c(c1)CCCN2c1ncnc(Nc2cccc(Cc3nnn[nH]3)c2)n1
< 0.4 µg/mL | COc1cc(Nc2ncnc(N(c3ccc(Cl)cc3)c3nc4ccccc4[nH]3)n2)cc(OC)c1OC
0.4 to 2.4 µg/mL (≈ 0.921 to 5.52 µM) | O=C(O)CCNC(=O)c1ccc(Nc2ncnc(Nc3cc(-c4ccco4)[nH]n3)n2)cc1
> 4.5 µg/mL | COc1cc(Nc2ncnc(-n3c(NCc4ccc(C)cc4)nc4ccccc43)n2)cc(OC)c1OC
0.4 to 2.4 µg/mL (≈ 1.03 to 6.18 µM) | CN(C)CCNc1ncnc(Nc2ccc3c(cnn3Cc3ccccc3)c2)n1
0.4 to 2.4 µg/mL (≈ 1 to 6.01 µM) | COc1cccc(Nc2ncnc(Nc3ccc(OCc4ccccc4)cc3)n2)c1
> 4.5 µg/mL | COc1cc(Nc2ncnc(-n3c(NCC(C)C)nc4ccccc43)n2)cc(OC)c1OC
> 4.5 µg/mL | COc1cc(Nc2ncnc(-n3c(NCc4cccc([N+](=O)[O-])c4)nc4ccccc43)n2)cc(OC)c1OC
0.4 to 2.4 µg/mL (≈ 1.19 to 7.17 µM) | CCN(CC)CCNc1ncnc(N(C)c2cccc(Cl)c2)n1
0.4 to 2.4 µg/mL (≈ 0.878 to 5.27 µM) | COc1cc(Nc2ncnc(N(CC(=O)O)c3ccc4c(c3)OCO4)n2)cc(OC)c1OC

IC50 | Structure (SMILES)
> 4.5 µg/mL | CC(C)(C)c1ccc(Nc2ncnc(-n3c(N)nc4ccccc43)n2)cc1
> 4.5 µg/mL | COc1ccc(Nc2nc3ccccc3n2-c2ncnc(Nc3cc(OC)c(OC)c(OC)c3)n2)cc1
> 4.5 µg/mL | COc1cc(Nc2ncnc(-n3ccc4cc(OCc5ccccc5)ccc43)n2)cc(OC)c1OC
0.4 to 2.4 µg/mL (≈ 0.975 to 5.85 µM) | COc1cc(Nc2ncnc(NC(=O)NCc3ccccc3)n2)cc(OC)c1OC
> 4.5 µg/mL | COC(=O)c1sccc1Nc1ncnc(N2CCCc3cc(C)ccc32)n1
0.4 to 2.4 µg/mL (≈ 1.13 to 6.75 µM) | O=c1[nH]c2ccccc2n1-c1ncnc(Nc2nccc3ccccc23)n1
2.4 to 3.5 µg/mL (≈ 4.71 to 6.87 µM) | COc1cc(Nc2ncnc(-n3c(NC4CCc5ccccc54)nc4ccccc43)n2)cc(OC)c1OC (stereo unspecified)
> 4.5 µg/mL | CCN(CC)C(=O)C1CCCN(c2ncnc(Nc3cc(OC)c(OC)c(OC)c3)n2)C1 (stereo unspecified)
3.5 to 4.5 µg/mL (≈ 9.2 to 11.8 µM) | c1ccc(Nc2ncccc2-c2ncnc(Nc3ccc4[nH]ncc4c3)n2)cc1
> 4.5 µg/mL | COc1ccc(CCNc2ncnc(N3CCCc4cc(C)ccc43)n2)cc1OC
0.4 to 2.4 µg/mL (≈ 0.923 to 5.54 µM) | COc1cc(Nc2ncnc(Nc3cc(-c4cccc(C)c4)n[nH]3)n2)cc(OC)c1OC
2.4 to 3.5 µg/mL (≈ 5.79 to 8.45 µM) | COc1cc(Nc2ncnc(Nc3cc(OC)c(OC)c(OC)c3)n2)cc(OC)n1
2.4 to 3.5 µg/mL (≈ 4.42 to 6.44 µM) | COc1ccc(CNc2nc3ccccc3n2-c2ncnc(Nc3cc(OC)c(OC)c(OC)c3)n2)cc1OC
< 0.4 µg/mL | COc1cc(Nc2ncnc(Nc3ccc(Br)cc3F)n2)cc(OC)c1OC
> 4.5 µg/mL | COc1cc(Nc2ncnc(N3CCc4ccccc4C3)n2)cc(OC)c1OC
< 0.4 µg/mL | COc1cc(Nc2ncnc(Nc3cccc4ccccc34)n2)cc(OCCN2CCOCC2)c1OC
2.4 to 3.5 µg/mL (≈ 7.84 to 11.4 µM) | O=c1[nH]c2ccccc2n1-c1ncnc(Nc2ccncn2)n1
> 4.5 µg/mL | COC(=O)C(c1ccccc1)c1ncnc(Nc2cc(OC)c(OC)c(OC)c2)n1 (stereo unspecified)
< 0.4 µg/mL | NC(=O)c1cccc(Nc2ncnc(Nc3cc(-c4ccco4)n[nH]3)n2)c1
> 4.5 µg/mL | COc1cc(Nc2ncnc(-n3c(NCc4ccccn4)nc4ccccc43)n2)cc(OCCN2CCOCC2)c1OC
< 0.4 µg/mL | O=C(O)Cc1cccc(Nc2ncnc(Nc3cccc(Br)c3)n2)c1
> 4.5 µg/mL | C=CCNc1ncccc1-c1ncnc(Nc2ccc(C(N)=O)cc2)n1
> 4.5 µg/mL | Clc1cccc(Nc2ncnc(-c3cccs3)n2)c1
0.4 to 2.4 µg/mL (≈ 0.799 to 4.79 µM) | CNS(=O)(=O)Cc1ccc(Nc2ncnc(Nc3ccc4c(cnn4Cc4ccccc4)c3)n2)cc1
2.4 to 3.5 µg/mL (≈ 5.44 to 7.94 µM) | COc1ccc(Nc2ncnc(NCc3ncc(C(F)(F)F)cc3Cl)n2)cc1OC
> 4.5 µg/mL | COc1cc(Nc2ncnc(-c3cccnc3NCc3cccc4ccccc34)n2)cc(OC)c1OC

IC50 | Structure (SMILES)
> 4.5 µg/mL | O=c1[nH]c2ccccc2n1-c1ncnc(Nc2cccc(S(=O)(=O)CCO)c2)n1
0.4 to 2.4 µg/mL (≈ 1.01 to 6.07 µM) | COc1cc(Nc2ncnc(NC(=O)Cc3ccccc3)n2)cc(OC)c1OC
> 4.5 µg/mL | COc1cc(Nc2ncnc(N3CCN(c4ccccn4)CC3)n2)cc(OC)c1OC
> 4.5 µg/mL | C=CCNc1nc2ccccc2n1-c1ncnc(Nc2cc(OC)c(OC)c(OC)c2)n1
< 0.4 µg/mL | CCN(c1ccc(C)cc1)c1ncnc(Nc2cc(OC)c(OC)c(OC)c2)n1
> 4.5 µg/mL | COc1ccc(Nc2ncnc(NCCC#N)n2)cc1OC
> 4.5 µg/mL | COc1cc(Nc2ncnc(Nc3ccc(NCc4ccccc4)cc3)n2)cc(OC)c1OC
3.5 to 4.5 µg/mL (≈ 7.22 to 9.29 µM) | COc1cc(Nc2ncnc(-c3cccnc3NC3CCCc4ccccc43)n2)cc(OC)c1OC (stereo unspecified)
0.4 to 2.4 µg/mL (≈ 1 to 6.02 µM) | O=C(O)Cc1cccc(Nc2ncnc(-c3cccnc3Nc3ccccc3)n2)c1
> 4.5 µg/mL | COc1cc(Nc2ncnc(Nc3c(C)n(C)n(-c4ccccc4)c3=O)n2)cc(OC)c1OC
> 4.5 µg/mL | COc1cc(Nc2ncnc(-c3cccnc3Nc3cc(Cl)cc(Cl)c3)n2)cc(OC)c1OC
< 0.4 µg/mL | CN(c1cccc(Cl)c1)c1ncnc(Nc2ccc3c(cnn3C)c2)n1
> 4.5 µg/mL | COc1cc(Nc2ncnc(-n3c(NCc4ccccc4C)nc4ccccc43)n2)cc(OC)c1OC
0.4 to 2.4 µg/mL (≈ 1.11 to 6.66 µM) | CN(c1cccc(Cl)c1)c1ncnc(N(C)c2cccc(Cl)c2)n1
> 4.5 µg/mL | CCN(CC)c1ccc(Nc2ncnc(N3CCCc4cc(C)ccc43)n2)cc1
< 0.4 µg/mL | CN(c1cccc(Br)c1)c1ncnc(Nc2cccc(Cc3nnn[nH]3)c2)n1
0.4 to 2.4 µg/mL (≈ 1 to 6.01 µM) | COc1cc(Nc2ncnc(Nc3cc(C(C)(C)C)[nH]n3)n2)cc(OC)c1OC
2.4 to 3.5 µg/mL (≈ 6.07 to 8.85 µM) | COc1cc(Nc2ncnc(Nc3ccc(C(C)=O)cc3)n2)cc(OC)c1OC
> 4.5 µg/mL | COC(=O)c1cccc(Nc2ncnc(Nc3cc(-c4ccco4)n[nH]3)n2)c1
3.5 to 4.5 µg/mL (≈ 8 to 10.3 µM) | COc1cc2ccn(-c3ncnc(Nc4cc(OC)c(OC)c(OC)c4)n3)c2cc1OC
> 4.5 µg/mL | CCN(CC)CCOc1cc(Nc2ncnc(Nc3cc(OC)c(OC)c(OC)c3)n2)ccc1OC
0.4 to 2.4 µg/mL (≈ 0.991 to 5.95 µM) | COc1cc(Nc2ncnc(Nc3ccc4ccccc4c3)n2)cc(OC)c1OC
> 4.5 µg/mL | COc1ccc(CNc2ncccc2-c2ncnc(Nc3cc(OC)c(OC)c(OC)c3)n2)cc1
0.4 to 2.4 µg/mL (≈ 0.991 to 5.95 µM) | NC(=O)c1ccc(Nc2ncnc(-c3cccnc3NCc3cccs3)n2)cc1
> 4.5 µg/mL | COc1cc(Nc2ncnc(-n3c(Nc4ccc(F)cc4)nc4ccccc43)n2)cc(OC)c1OC
> 4.5 µg/mL | COc1cc(Nc2ncnc(-n3c(Nc4ccc(N(C)C)cc4)nc4ccccc43)n2)cc(OC)c1OC

IC50 | Structure (SMILES)
> 4.5 µg/mL | COc1cc(Nc2ncnc(-n3c(NC(CO)c4ccccc4)nc4ccccc43)n2)cc(OC)c1OC (stereo unspecified)
> 4.5 µg/mL | COc1cc(Nc2ncnc(Nc3ccncc3)n2)cc(OC)c1OC
0.4 to 2.4 µg/mL (≈ 0.779 to 4.67 µM) | COc1cc(Nc2ncnc(-n3c(N[C@@H](CO)c4ccccc4)nc4ccccc43)n2)cc(OC)c1OC
> 4.5 µg/mL | Clc1ncnc(Nc2ccc(OCc3ccccc3)cc2)n1
> 4.5 µg/mL | COc1cc(Nc2ncnc(NC(=O)NCCc3ccccc3)n2)cc(OC)c1OC
> 4.5 µg/mL | COc1cc(Nc2ncnc(Nc3ccc(NC(=O)OC(C)(C)C)cc3)n2)cc(OC)c1OC
3.5 to 4.5 µg/mL (≈ 8.26 to 10.6 µM) | COc1cc(Nc2ncnc(-c3ccc(N4CCNCC4)nc3)n2)cc(OC)c1OC
2.4 to 3.5 µg/mL (≈ 5.29 to 7.71 µM) | COc1cc(Nc2ncnc(Nc3cc(-c4ccc(Cl)cc4)n[nH]3)n2)cc(OC)c1OC
> 4.5 µg/mL | CC(C)(C)OC(=O)NCCCNc1ncnc(-c2ccccc2)n1
0.4 to 2.4 µg/mL (≈ 0.892 to 5.35 µM) | CC(C)(C)OC(=O)NCc1cccc(Nc2ncnc(Nc3cc(-c4ccco4)n[nH]3)n2)c1
> 4.5 µg/mL | COc1cc(Nc2ncnc(-n3c(Nc4cccc(C)c4)nc4ccccc43)n2)cc(OC)c1OC
> 4.5 µg/mL | Brc1ccc(Nc2ncnc(-n3cccc3)n2)cc1
0.4 to 2.4 µg/mL (≈ 1.09 to 6.51 µM) | COc1cc(Nc2ncnc(Nc3ccc(N)cc3)n2)cc(OC)c1OC
0.4 to 2.4 µg/mL (≈ 1.01 to 6.04 µM) | NC(=O)c1ccc(Nc2ncnc(-c3cccnc3NCc3ccccc3)n2)cc1
> 4.5 µg/mL | Cc1ccc2c(c1)CCCN2c1ncnc(NCc2ccccn2)n1
0.4 to 2.4 µg/mL (≈ 0.905 to 5.43 µM) | CN(c1cccc(Cl)c1)c1ncnc(Nc2ccc3c(cnn3Cc3ccccc3)c2)n1
3.5 to 4.5 µg/mL (≈ 9.96 to 12.8 µM) | Fc1ccc(CNc2ncnc(Nc3cc(-c4ccco4)n[nH]3)n2)cc1
2.4 to 3.5 µg/mL (≈ 5.1 to 7.44 µM) | COc1cc(Nc2ncnc(-c3cccnc3NC3CCc4ccccc43)n2)cc(OC)c1OC (stereo unspecified)
> 4.5 µg/mL | Nc1nc2ccccc2n1-c1ncnc(Nc2cccc(CC(=O)NCc3ccccn3)c2)n1
> 4.5 µg/mL | COc1cc(Nc2ncnc(-c3cccnc3Nc3ccc4c(c3)CCC4)n2)cc(OC)c1OC
> 4.5 µg/mL | Cc1ccc2c(c1)CCCN2c1ncnc(NCc2ccc(C(=O)O)cc2)n1
3.5 to 4.5 µg/mL (≈ 7.24 to 9.31 µM) | COc1cc(Nc2ncnc(-n3c(Nc4ccccc4C)nc4ccccc43)n2)cc(OC)c1OC
> 4.5 µg/mL | COc1cc(Nc2ncnc(-n3c(Nc4ccc5cn[nH]c5c4)nc4ccccc43)n2)cc(OC)c1OC
> 4.5 µg/mL | Cc1ccc(Nc2ncnc(-n3cccc3)n2)cc1Cl
0.4 to 2.4 µg/mL (≈ 1.1 to 6.62 µM) | COc1cc(Nc2ncnc(-n3ccnc3Cl)n2)cc(OC)c1OC
> 4.5 µg/mL | CC(=O)Nc1ccc(Nc2ncnc(-n3c(N)nc4ccccc43)n2)cc1

Structure (SMILES) | IC50
Clc1ccccc1Nc1ncnc(-n2cccc2)n1 | > 4.5 µg/mL
COc1cc(Nc2ncnc(-c3cccnc3Nc3ccccc3)n2)cc(OC)c1OC | > 4.5 µg/mL
